Measurements taken from patent publication US8722674B2, “1,3,5-triazine-2,4,6-triamine compound or pharmaceutical acceptable salt thereof, and pharmaceutical composition comprising the same” (Hanall Biopharma Co., Ltd., priority 2007, dated 2014).
Structures can show the parent of a compound that is named as a salt. Values belong to the compound of their own block, whether it stands above or below them.

Columns and labels:
C2C12 cells = assay: Measurement of glucose absorption (3H-deoxy-glucose); format: cell-based
Source text: (§1) Metformin that is widely used in type 2 diabetic patients inhibits the formation of glucose, the synthesis of cholesterol and triglyceride in liver cells and promote the absorption of glucose from blood vessels in the muscle cells. […] In the case of the ability to form cholesterol, triglyceride and glucose, the lower the numerical value, the better the effect. Numerical values for a control group become reference values.
As a muscle cell model, C2C12 cells were induced to differentiate into muscle cells in 2% bovine fetal serum for 6 days. The C2C12 cells which differentiated into muscle cells were treated with each of the compounds in serum-free low glucose media, and then cultured with 1 μM of insulin for 24 hours. After cultivation, the cells were treated with 1 μCi 3H-deoxy-glucose and 10 μM deoxy-glucose at 37° C. for 15 minutes. After treatment, the media were removed, and the cells were washed twice with PBS. The washed cells were treated with 0.1 N NaOH and neutralized with 1N HCl. The amount of glucose absorbed into the cells was measured with a liquid scintillation counter. The effect of the compounds was determined by selecting a compound showing an absorption effect of at least 200%, dividing the absorption effect by the average percent of the control group, and then multiplying the divided value by […]. A higher measurement value means a stronger ability to reduce insulin resistance.

HepG2 cells [1] = assay: Measurement of gluconeogenesis (14C-lactate); format: cell-based; details: 24 h treatment, lower is better
Protocol: as §1
As a hepatic cell model, HepG2 cells were cultured in 10% serum-containing high glucose media, and then treated with each of the compounds for 24 hours. Then, the cells were treated with 0.5 uCi 14C-lactate and 10 mM L-lactate, and cultured for 4 hours. After cultivation, the media of the cells were removed, and the cells were washed with PBS, treated with 0.1N NaOH and left to stand at room temperature for 1 hour. Then, the cells were neutralized with 1N HCl, and the amount of glucose formed in the cells was measured with a liquid scintillation counter. […] A lower measurement value means a stronger blood glucose lowering activity.

HepG2 cells [2] = assay: Measurement of cholesterol synthesis ability (Amplex red fluorescence); format: cell-based; details: HepG2 cells, 24 h treatment, lower is better
Source text: as §1
(§2) As a hepatic cell model, HepG2 cells were used to measure cholesterol synthesis inhibitory ability, which is the important function of AMPK. The hepatic cell model HepG2 cells were cultured in 1% serum-containing media for 24 hours, and then treated with each of the compounds for 24 hours. Then, the cells were disrupted with lysis buffer (0.1 M potassium phosphate, pH 7.4, 0.05 M NaCl, 5 mM cholic acid, 0.1% Triton X-100). To the disrupted cells, the same volume of a reaction solution (2 U/ml cholesterol oxidizing agent, 2 U/ml peroxidase, 0.2 U/ml cholesterol esterase, and 300 μM Amplex red as a fluorescent factor) was added and allowed to react at 37° C. for 30 minutes. After completion of the reaction, the cells were measured with a fluorometer at a wavelength of 560/590 nm (ex/em), thus quantifying the amount of […] formed in the cells. A lower measurement value means an increased lipid production inhibitory ability.

HepG2 cells [3] = assay: Measurement of triglyceride (Amplex red fluorescence); format: cell-based; details: 24 h treatment, lower is better
Protocol: as §1
as §2, with “model,” for “model, HepG2 cells were used to measure cholesterol synthesis inhibitory ability, which is the important function of AMPK. The hepatic cell model”, “(0.1M” for “(0.1 M”, “(0.76” for “(2”, “glycerol kinase, […] peroxidase, 22.2 U/ml glycerol” for “cholesterol”, “agent,” for “agent, 2 U/ml peroxidase, 0.2 U/ml cholesterol esterase,”

[4] = Mus musculus, 250 uM, differentiated C2C12 muscle cells, with 1 μM insulin 24 h, higher is better, read-out: glucose absorption, % control
[5] = Homo sapiens, 500 uM, read-out: gluconeogenesis (glucose synthesis ability), % control
[6] = Homo sapiens, 250 uM, read-out: cholesterol synthesis ability, % control
[7] = Homo sapiens, 250 uM, read-out: triglyceride synthesis ability, % control
[8] = Mus musculus, differentiated C2C12 muscle cells, with 1 μM insulin 24 h, higher is better, read-out: glucose absorption, % control
[9] = Homo sapiens, read-out: gluconeogenesis (glucose synthesis ability), % control
[10] = Homo sapiens, 100 uM, read-out: cholesterol synthesis ability, % control
[11] = Homo sapiens, 100 uM, read-out: triglyceride synthesis ability, % control
[12] = Mus musculus, 100 uM, differentiated C2C12 muscle cells, with 1 μM insulin 24 h, higher is better, read-out: glucose absorption, % control
[13] = Homo sapiens, 100 uM, read-out: gluconeogenesis (glucose synthesis ability), % control

Compound: CN(C)c1nc(N)nc(NCc2ccc3c(c2)OCO3)n1 (as salt: HCl) [Example 1, N2-(benzo[d][1,3]dioxol-5-ylmethyl)-N4,N4-dimethyl-1,3,5-triazine-2,4,6-triamine]
melting point: 193.7 to 219.6 °C

Compound: CN(C)c1nc(N)nc(NCc2ccc3c(c2)OCO3)n1 [Example 1, N2-(benzo[d][1,3]dioxol-5-ylmethyl)-N4,N4-dimethyl-1,3,5-triazine-2,4,6-triamine]
activity at 250 µM (C2C12 cells; [4]): 133% | activity at 500 µM (HepG2 cells [1]; [5]): 105% | activity at 250 µM (HepG2 cells [2]; [6]): 81.1% | activity at 250 µM (HepG2 cells [3]; [7]): 103%

Compound: CN(C)c1nc(N)nc(Nc2cccc(Br)c2)n1 [Example 2, N2-(3-bromophenyl)-N4,N4-dimethyl-1,3,5-trizaine-2,4,6-triamine]
glucose absorption, % control (C2C12 cells; 100 uM, differentiated C2C12 muscle cells, with 1 μM insulin 24 h, higher is better): 35.23% | gluconeogenesis (glucose synthesis ability), % control (HepG2 cells [1]; 100 uM): 51.89% | cholesterol synthesis ability, % control (HepG2 cells [2]; 100 uM): 23.15% | triglyceride synthesis ability, % control (HepG2 cells [3]; 100 uM): 19.11%

Compound: CN(C)c1nc(N)nc(NCCN2CCOCC2)n1 [Example 3, N2,N2-dimethyl-N4-(2-morpholinoethyl)-1,3,5-triazine-2,4,6-triamine]
activity at 250 µM (C2C12 cells; [4]): 132% | activity at 500 µM (HepG2 cells [1]; [5]): 67.6% | melting point: 138.2 to 141.6 °C | activity at 250 µM (HepG2 cells [2]; [6]): 113% | activity at 250 µM (HepG2 cells [3]; [7]): 98%

Compound: CN(C)c1nc(N)nc(NCc2cccnc2)n1 [Example 4, N2,N2-dimethyl-N4-(2-pyridine-3-ylmethyl)-1,3,5-triazine-2,4,6-triamine]
glucose absorption, % control (C2C12 cells; 250 uM, differentiated C2C12 muscle cells, with 1 μM insulin 24 h, higher is better): 143.92% | gluconeogenesis (glucose synthesis ability), % control (HepG2 cells [1]; 500 uM): 92.14% | cholesterol synthesis ability, % control (HepG2 cells [2]; 250 uM): 93.66% | triglyceride synthesis ability, % control (HepG2 cells [3]; 250 uM): 99.48%

Compound: CN(C)c1nc(N)nc(Nc2ccc(Cl)c(Cl)c2)n1 [Example 17, N2-(3,4-dichlorophenyl)-N4,N4-dimethyl-1,3,5-triazine-2,4,6-triamine]
activity at 100 µM (C2C12 cells; [12]): 7.29% | activity at 100 µM (HepG2 cells [1]; [13]): 15.2% | activity at 100 µM (HepG2 cells [2]; [10]): 11.3% | activity at 100 µM (HepG2 cells [3]; [11]): -12.1%

Compound: CC(C)c1ccc(Nc2nc(N)nc(N(C)C)n2)cc1 [Example 28, N2-(4-isopropylphenyl)-N4,N4-dimethyl-1,3,5-triazine-2,4,6-triamine]
activity at 100 µM (C2C12 cells; [12]): 173% | activity at 100 µM (HepG2 cells [1]; [13]): 45.4% | activity at 100 µM (HepG2 cells [2]; [10]): 65.9% | activity at 100 µM (HepG2 cells [3]; [11]): 43.2%

Compound: CN(C)c1nc(N)nc(Nc2ccccc2F)n1 [Example 30, N2-(2-fluorophenyl)-N4,N4-dimethyl-1,3,5-triazine-2,4,6-triamine]
activity at 100 µM (C2C12 cells; [12]): 133% | activity at 100 µM (HepG2 cells [1]; [13]): 85.5% | activity at 100 µM (HepG2 cells [2]; [10]): 75.7% | activity at 100 µM (HepG2 cells [3]; [11]): 81.1%

Compound: CN(C)c1nc(N)nc(N2CCCC2)n1 [Example 35, N2,N2-dimethyl-6-(pyrrolidin-1-yl)-1,3,5-triazine-2,4-diamine]
activity at 100 µM (C2C12 cells; [12]): 285% | effect of reducing insulin resistance, times better than the control group (C2C12 cells; absorption effect divided by average percent of control group (metformin 2 mM), multiplied by 20): about 17 times | activity at 100 µM (HepG2 cells [1]; [13]): 91.4% | activity at 100 µM (HepG2 cells [2]; [10]): 69% | activity at 100 µM (HepG2 cells [3]; [11]): 99.9%

Compound: CCc1ccccc1Nc1nc(N)nc(N(C)C)n1 [Example 36, N2-(2-ethylphenyl)-N4,N4-dimethyl-1,3,5-triazine-2,4,6-triamine]
activity at 100 µM (C2C12 cells; [12]): 100% | activity at 100 µM (HepG2 cells [1]; [13]): 42.1% | activity at 100 µM (HepG2 cells [2]; [10]): 51% | activity at 100 µM (HepG2 cells [3]; [11]): 75.1%

Compound: CN(C)C(=N)N=C(N)N [Metformin, reference compound]
activity at 2000 µM (C2C12 cells; Mus musculus, 2 mM, differentiated C2C12 muscle cells, with 1 μM insulin 24 h, higher is better, read-out: glucose absorption, % control): 329% | activity at 2000 µM (HepG2 cells [1]; Homo sapiens, 2 mM, read-out: gluconeogenesis (glucose synthesis ability), % control): 52.7% | activity at 2000 µM (HepG2 cells [2]; Homo sapiens, 2 mM, read-out: cholesterol synthesis ability, % control): 83.5% | activity at 2000 µM (HepG2 cells [3]; Homo sapiens, 2 mM, read-out: triglyceride synthesis ability, % control): 70.6%

Second part, led by results:

melting point: 151.6 to 152 °C
Compound: CN(C)c1nc(N)nc(NCc2ccco2)n1 [Example 5, N2-(furan-2-ylmethyl)-N4,N4-dimethyl-1,3,5-triazine-2,4,6-triamine]
activity at 250 µM (C2C12 cells; [4]): 142% | activity at 500 µM (HepG2 cells [1]; [5]): 68.5% | activity at 250 µM (HepG2 cells [2]; [6]): 77.5% | activity at 250 µM (HepG2 cells [3]; [7]): 90.2%

melting point: 140.8 to 142.9 °C
Compound: Nc1nc(N)nc(NCc2ccc3c(c2)OCO3)n1 [Example 6, N2-(benzo[d][1,3]dioxol-5-ylmethyl)-1,3,5-triazine-2,4,6-triamine]
activity at 250 µM (C2C12 cells; [4]): 114% | activity at 500 µM (HepG2 cells [1]; [5]): 82.3% | activity at 250 µM (HepG2 cells [2]; [6]): 92.7% | activity at 250 µM (HepG2 cells [3]; [7]): 108%

melting point: 116.6 to 117.2 °C
Compound: CN(C)c1nc(N)nc(NCCN2CCCCC2)n1 [Example 7, N2,N2-dimethyl-N4-(2-(piperidin-1-yl)ethyl)-1,3,5-triazine-2,4,6-triamine]
activity at 200 µM (C2C12 cells; [8]): 131% | activity at 200 µM (HepG2 cells [1]; [9]): 101% | activity at 100 µM (HepG2 cells [2]; [10]): 97.4% | activity at 100 µM (HepG2 cells [3]; [11]): 95.8%

melting point: 141.4 to 142 °C
Compound: COc1ccc(CNc2nc(N)nc(N(C)C)n2)cc1O [Example 8, 5-((4-amino-6-(dimethylamino)-1,3,5-triazine-2-ylamino)methyl)-2-methoxyphenol]
activity at 200 µM (C2C12 cells; [8]): 126% | activity at 200 µM (HepG2 cells [1]; [9]): 94.8% | activity at 100 µM (HepG2 cells [2]; [10]): 59.1% | activity at 100 µM (HepG2 cells [3]; [11]): 106%

melting point: 176.5 to 177 °C
Compound: CN(C)c1nc(N)nc(NCCCN2CCCC2=O)n1 [Example 9, 1-(3-(4-amino-6-(dimethylamino)-1,3,5-triazin-2-ylamino)propyl)pyrrolidin-2-one]
activity at 200 µM (C2C12 cells; [8]): 120% | activity at 200 µM (HepG2 cells [1]; [9]): 110% | activity at 100 µM (HepG2 cells [2]; [10]): 93.5% | activity at 100 µM (HepG2 cells [3]; [11]): 95.2%

melting point: 227 to 228 °C
Compound: CN(C)c1nc(N)nc(N(C)C)n1 [Example 10, N2,N2,N4,N4-tetramethyl-1,3,5-triazine-2,4,6-triamine]
activity at 200 µM (C2C12 cells; [8]): 102% | activity at 200 µM (HepG2 cells [1]; [9]): 87.2% | activity at 100 µM (HepG2 cells [2]; [10]): 98.9% | activity at 100 µM (HepG2 cells [3]; [11]): 97%

melting point: 271.8 to 272.8 °C
Compound: CN(C)c1nc(N)nc(N)n1 [Example 11, N2,N2-dimethyl-1,3,5-triazine-2,4,6-triamine]
activity at 200 µM (C2C12 cells; [8]): 106% | activity at 200 µM (HepG2 cells [1]; [9]): 70.4% | activity at 100 µM (HepG2 cells [2]; [10]): 97.7% | activity at 100 µM (HepG2 cells [3]; [11]): 97.6%

melting point: 253 to 263 °C
Compound: CN(C)c1nc(N)nc(Nc2ccc(C(C)(C)C)cc2)n1 [Example 22, N2-(4-tert-butylphenyl)-N4,N4-dimethyl-1,3,5-triazine-2,4,6-triamine]
activity at 100 µM (HepG2 cells [2]; [10]): 53% | activity at 100 µM (HepG2 cells [3]; [11]): 34.4%

melting point: 132 to 168 °C
Compound: CCCCCCc1ccc(Nc2nc(N)nc(N(C)C)n2)cc1 [Example 42, N2-(4-hexylphenyl)-N4,N4-dimethyl-1,3,5-triazine-2,4,6-triamine]
activity at 100 µM (HepG2 cells [2]; [10]): 39% | activity at 100 µM (HepG2 cells [3]; [11]): 34.3%
